The values that follow come from patent publication US9603820B2, “Ornithine aminotransferase inhibition with GABA analogues for treatment of hepatocellular carcinoma” (Northwestern University, priority 2014, dated 2017).

Data set [1] has as its target T1, OAT (Homo sapiens, UniProt P04181).
T1 sequence (P04181 36-439 limits assumed): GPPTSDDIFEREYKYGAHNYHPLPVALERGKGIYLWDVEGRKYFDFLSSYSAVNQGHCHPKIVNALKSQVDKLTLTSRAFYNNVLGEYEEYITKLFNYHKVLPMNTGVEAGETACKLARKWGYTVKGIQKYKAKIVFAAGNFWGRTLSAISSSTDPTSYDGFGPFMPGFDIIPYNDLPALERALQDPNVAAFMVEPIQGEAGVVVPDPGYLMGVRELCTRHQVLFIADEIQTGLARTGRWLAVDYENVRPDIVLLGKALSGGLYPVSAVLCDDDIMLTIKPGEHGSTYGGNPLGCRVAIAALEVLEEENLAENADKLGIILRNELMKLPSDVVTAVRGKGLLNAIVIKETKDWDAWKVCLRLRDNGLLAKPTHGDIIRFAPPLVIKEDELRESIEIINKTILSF
The settings on record: prior art, FIG. 1; cited from earlier work.

In data set [2] the test system is γ-aminobutyric acid aminotransferase (GABA-AT). To be noted: cited from earlier work.
For data set [3] the following is noted: in vivo.
Protocol: Each dose cohort consisted of 8 subjects. […] Subjects were followed for safety for a 30-day period after receiving their single dose of study treatment.
Dose escalation can continue until completion of the 500 mg dose cohort.
In data set [4] the test system is GABAA. As to the kind of experiment: Binding to GABAA.
Data set [5] relates to Cerep panel of 111 pharmacological targets. As to the kind of experiment: Cerep panel.
The subject of data set [6] is GABAC. Put plainly: Binding to GABAC.
The subject of data set [7] is Salmonella typhimurium (TA98, TA100, TA1535, and TA1537) and Escherichia coli (WP2uvrA). As to the kind of experiment: In vitro bacterial reverse mutation assay. To be noted: up to 5000 μg per plate, presence or absence of S9.
The test system of data set [8] is CYP1A2. The settings on record: concentrations up to 100 μM, 3 days.
Data set [9] has as its system aspartate aminotransferase. As to the kind of experiment: Inhibition of aspartate aminotransferase. The data set is classed as biochemical. The settings on record: even at 6 mM concentration.
The nature of data set [10]: 4-week oral (gavage) toxicology/toxicokinetic study in dogs.
Protocol: Dogs received test article once daily for at least 4 weeks at a dose volume of 7 mL/kg followed by a 4-week recovery period.
Assessment of toxicity was based on mortality, clinical observations, body weights, body weight gain, food consumption, physical examinations, vital signs (heart rate, respiration, and body temperature), ophthalmology examinations, electrocardiogram examinations, clinical and anatomic pathology, and left eye evaluation.
For data set [11], the system named is three human GABA transporters. As to the kind of experiment: Binding to GABA transporters (summary statement).
Data set [12] deals with CYP3A4/5. As to the kind of experiment: CYP inhibition in human liver microsomes. The data set is classed as in vitro ADME. To be noted: 0.1 to 100 μM. On the technique in general: Liver microsomes are vesicles of endoplasmic reticulum, rich in cytochrome P450 enzymes.
The test system of data set [13] is human peripheral blood lymphocytes (HPBL). Put plainly: In vitro mammalian chromosome aberration test. Type of data set: cell-based. To be noted: 535, 1070, and 2140 μg/mL, absence and presence of S9. On the procedure: CPP-115 was tested in the in vitro mammalian chromosome aberration test using human peripheral blood lymphocytes (HPBL) in both the absence and presence of an Aroclor-induced rat liver S9 metabolic activation system.

Data set [14] in a line: 4-week oral (gavage) toxicology/toxicokinetic study in rats.
Protocol: Rats received test article once daily for at least 4 weeks at a dose volume of 10 mL/kg followed by a 4-week recovery period.
In data set [15] the test system is alanine aminotransferase. As to the kind of experiment: Inhibition of alanine aminotransferase. The data set is classed as biochemical. To be noted: even at 6 mM concentration.
For data set [16], the target named is T2, ornithine aminotransferase (OAT) (Homo sapiens, UniProt P04181).
T2 sequence (P04181 36-439 limits assumed): T1 sequence (P04181 36-439 limits assumed)
Put plainly: Continuous coupled OAT assay (PYCR1/NADH), inhibition of OAT. The data set is classed as biochemical. To be noted: FIG. 2. The source says: With these two assays in hand, the activity of a variety of compounds made previously as potential inhibitors of GABA-AT were investigated.

In data set [17] the test system is γ-aminobutyric acid aminotransferase (GABA-AT). As to the kind of experiment: Inhibition/inactivation of GABA-AT. The data set is classed as biochemical.
Data set [18] deals with hepatocellular carcinoma (HCC). The settings on record: HCC patients, cited from earlier work; for response rates: single agent.
For data set [19] the following is noted: rat, in vivo. On the procedure: At the conclusion of dosing, rats entered a wash-out period (5-7 days) after which electroretinograms (ERGs) for scotopic (rod), mesopic (standard combined), photopic (cone), and 10 Hz and 15 Hz3 flicker ERG responses were collected for both eyes from each rat.
Quantitative histological examinations of retinas of the rats from this study were also carried out. Cone receptors were stained with a cone arrestin antibody and counterstained with a red stain for visualization and counting. Retinal sections were also stained with H&E and the ONL nuclei counts and ONL thicknesses were determined.

Data set [20] deals with HepA1-6. As to the kind of experiment: HCC proliferation, 3H-thymidine assay. Type of data set: cell-based. To be noted: HepA1-6, 48 h after exposure to 20 mM gabaculine.
Data set [21] relates to Hep3B cells. As to the kind of experiment: Alpha-fetoprotein (AFP) secretion in HCC cells. Type of data set: cell-based, human. To be noted: Hep3B cells.
The subject of data set [22] is human hepatoma Hep3B cells. Put plainly: Effect of gabaculine on HCC growth in vivo. More on the design: species or system Athymic Balb/C mice. As to the method: (§1) Alpha-fetoprotein (AFP) secretion was evaluated as a biomarker for HCC. […] Within seven days of a single dose to HCC-harboring mice, AFP serum levels decreased by 92% in comparison with a 9.7 fold increase in controls (FIG. 5C).
Athymic Balb/C mice were conditioned with sub-lethal radiation (400 cGy). At 24 h after irradiation, animals were injected subcutaneously at the right shoulder with 5×10^6 human hepatoma Hep3B cells. Blood samples were obtained weekly by retrobulbar puncture, and serum was separated and frozen at −20° C. until assayed. On day 45 the mice were divided into two groups (n=8 per treated and controls) and baseline serum AFP was measured. […] Mice in the control group were injected with saline. AFP serum levels, which correlate with tumor growth, were measured on day 52 using a standard Elisa test.

Data set [23] relates to Hep3B. As to the kind of experiment: HCC proliferation, 3H-thymidine assay. The data set is classed as cell-based, human. To be noted: 48 h after exposure to 20 mM gabaculine.
Data set [24] deals with PLC/PRF/5. Put plainly: HCC proliferation, 3H-thymidine assay. To be noted: PLC/PRF/5, 48 h after exposure to 20 mM gabaculine. Type of data set: cell-based.
Data set [25] deals with HepA1-6. Put plainly: Alpha-fetoprotein (AFP) secretion in HCC cells. Type of data set: cell-based. As to the method: as §1
Data set [26] relates to PLC/PRF/5. As to the kind of experiment: Alpha-fetoprotein (AFP) secretion in HCC cells. Type of data set: cell-based.

“Also recorded” adds a separate entry of the source. Where two headings read alike, the source gives them in different places.

Regarding `C#CC(N)CCC(=O)O` (centres unmarked) [4-aminohex-5-ynoic acid], the “inactivation/inhibition of OAT (known compounds)” value (from here on “inactivation/inhibition of OAT”) in data set [1] is “also inactivate OAT with equal potency”. In addition, in data set [2] (prior art, FIG. 1), the “inactivation/inhibition of GABA-AT (known compounds)” value is given as “inactivators of GABA-AT”.
`NC(CF)CC[C@H](N)C(=O)O` (some centres unmarked) [5-Fluoromethylornithine]: the “inactivation/inhibition of OAT” value in data set [1] is recorded as “irreversible inhibitors of OAT”.
For the compound `N[C@H]1C[C@@H](C(=O)O)CC1=C(F)F` [CPP-115, (1S,3S)-3-amino-4-difluoromethylenyl-1-cyclopentanoic acid], the elimination half-life in data set [3] (human, po) lay in the range of 4 to 6 h. The AUCs versus dose result in data set [3] is given as “greater than proportional increase”. Besides, the cmax versus dose result in [3] is listed as “increased in a dose proportional manner”. Also, the “time to peak blood concentration” value in data set [3] (po) was “approximately 30 minutes”. Besides, the “binding to GABAA” value in [4] is “does not bind”. Further, in [5], the “activity in the Cerep panel of 111 pharmacological targets” value is reported as “not active”. Moreover, the “binding to GABAC” value in data set [6] is “does not bind”. Also, in data set [7], the “mutagenicity (reverse mutations)” value was “not mutagenic; also recorded: no mutations”. Also, in data set [8], the “induction of CYP1A2 activity” value is “not an inducer”. For the same compound, the “inhibition of aspartate aminotransferase” value in [9] is reported as “does not inhibit”. Also, the entries for the “Human Equivalent Dose [HED] of NOAEL” value in data set [10] (dogs) and in [14] (rats) were 1.24 mg/kg/day and 0.96 mg/kg/day, respectively. Also, the “no-observed-effect-level (NOEL)” value stood at 0.7 mg/kg/day in data set [10] (females) and 2.3 mg/kg/day in data set [10] (males). Also, in data set [11], the “binding to three human GABA transporters” value is “does not bind”. Further, the “direct inhibition of CYP3A4/5” value in [12] is given as “little or no evidence of direct inhibition”. Moreover, in [13], the chromosome aberrations entry was “not elastogenic; also recorded: no mutations or chromosomal aberrations”. Further, in data set [14] (2, 6, 20 mg/kg/day oral), the “increases in Cmax and AUC0-t with dose” value is “generally dose proportional”. Besides, in data set [14] (6 or 20 mg/kg/day, dosing and recovery phases), the adverse microscopic finding result is listed as “retinal dysplasia”. Besides, the “hepatic extraction and tissue distribution” value in data set [14] (after oral administration) is “may not be highly extracted by the liver and may highly distribute to the tissues”. Besides, the “accumulation after multiple dosing” value in data set [14] (oral once daily, 4 weeks) is given as “No accumulation”. Besides, the “inhibition of alanine aminotransferase” value in data set [15] is on record as “does not inhibit”.
As to `NC1CC(C(=O)O)CC1=C(Cl)Cl` (centres unmarked) [Compound 18], in data set [16], the “inhibition of / binding to OAT, in words” value is listed as “very weak binder”. In addition, in [17], the “binding to GABA-AT” value is recorded as “very weak binder”.
Take `Cl.N[C@H]1C[C@@H](C(=O)O)C/C1=C\F` [Compound 20, (E)-(1S,3S)-3-Amino-4-fluoromethylenyl-1-cyclopentanoic acid, hydrochloride salt]: in [17], the “time-dependent inhibition of GABA-AT” value is “potent time-dependent inhibitors of GABA-AT”.
On the same count and under the same terms, as for `Cl.N[C@H]1C[C@@H](C(=O)O)C/C1=C/F` [Compound 22, (Z)-(1S,3S)-3-Amino-4-fluoromethylenyl-1-cyclopentanoic acid, hydrochloride salt], the entry is “potent time-dependent inhibitors of GABA-AT”.
`NCCCC(=O)O` [GABA, γ-aminobutyric acid]: the “inactivation/inhibition of OAT” value in [1] was “competitive inhibitor of OAT”.
`NOCC[C@H](N)C(=O)O` [L-canaline]: the “inactivation/inhibition of OAT” value in data set [1] is listed as “irreversible inhibitors of OAT”.
For the compound `CCCCCOC(=O)Nc1nc(=O)n([C@@H]2O[C@H](C)[C@@H](O)[C@H]2O)cc1F` [capecitabine], the “response rates in clinical trials” value in [18] was “low and short term”.
Regarding `N.N.[Cl][Pt][Cl]` [cisplatin], in data set [18], the response rates entry is given as “about 10%”.
As for `COc1cccc2c1C(=O)c1c(O)c3c(c(O)c1C2=O)C[C@@](O)(C(=O)CO)C[C@@H]3O[C@H]1C[C@H](N)[C@H](O)[C@H](C)O1` [doxorubicin], in data set [18], the response rates entry was “about 10%”.
On to `O=c1[nH]cc(F)c(=O)[nH]1` [fluorouracil], for which, in data set [18], the response rates entry was “about 10%”.
For the compound `Nc1ccn([C@@H]2O[C@H](CO)[C@@H](O)C2(F)F)c(=O)n1` [gemcitabine], in data set [18], the “response rates in clinical trials” value is “low and short term”.
As for `C=CC(N)CCC(=O)O` (centres unmarked) [vigabatrin, Vigabatrin, reference compound], the “inactivation/inhibition of OAT” value in [1] is reported as “does not inactivate OAT”. In addition, the cone receptor counts entry in data set [19] is reported as “no statistically significant change”.
Consider Gabaculine, for which the suppression of proliferation in [20], in [23] and in data set [24] was 46-51% in each case. In addition, the “decrease of AFP secretion” value in data set [21] is listed as 20%. The “tumor growth in vivo” value in data set [22] (HCC-harboring mice) was “significantly suppressed tumor growth in vivo”. The “decrease of AFP serum levels” value in [22] (within seven days of a single dose (500 microgram/kg i.p.)) worked out at 92%. Further, the AFP suppression entry in data set [25] and in data set [26] was “No significant differences” each time. In addition, the “inactivation/inhibition of GABA-AT (known compounds)” value in data set [2] was “inactivators of GABA-AT”.
